# From the supplement of paper PMC4862054
# Legend:
# Details in all cases: incubation time: 72 h
# BT-474 [1] = assay: normalised response (% of control), CellTox Green; higher = less cell death (100 = DMSO, 0 = benzethonium chloride kill control)
# Outline: (§1)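 Two readouts were taken after 72 h: CellTox Green fluorescence (485/520 nm) first, then CellTiter-Glo luminescence after 10 min at room temperature. Breast cancer cell lines had been seeded as 20 µl suspension into 384-well plates holding compound at 5 concentrations in 10-fold steps across a compound-specific 10,000-fold range. Each value is a normalised signal at a single concentration, with plates scaled to 0.1 % DMSO (100) and a positive kill control (0).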
# BT-549 [2] = assay: as above
# Outline: as §1
# CAL-120 [3] = assay: as above
# Outline: as §1
# CAL-148 [4] = assay: as above
# Outline: as §1
# CAL-51 [5] = assay: as above
# Outline: as §1
# CAL-85-1 [6] = assay: as above
# Outline: as §1
# DU-4475 [7] = assay: as above
# Outline: as §1
# HCC1143 [8] = assay: as above
# Outline: as §1
# HCC1599 [9] = assay: as above
# Outline: as §1
# HCC1937 [10] = assay: as above
# Outline: as §1
# HDQ-P1 [11] = assay: as above
# Outline: as §1
# MCF-10A [12] = assay: as above
# Outline: as §1
# MDA-MB-231 [13] = assay: as above
# Outline: as §1
# MDA-MB-436 [14] = assay: as above
# Outline: as §1
# MDA-MB-453 [15] = assay: as above
# Outline: as §1
# MDA-MB-468 [16] = assay: as above
# Outline: as §1
# MFM-223 [17] = assay: as above
# Outline: as §1
# BT-474 [18] = assay: normalised response (% of control), CellTiter-Glo; higher = more viable cells (100 = DMSO, 0 = benzethonium chloride kill control)
# Description: (§2)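 DSRT, 72 h incubation, CellTox Green / CellTiter-Glo readout. Signal is normalised to DMSO and benzethonium chloride controls. Value is the normalised response at the highest dose.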
# BT-549 [19] = assay: as above
# Description: as §2
# CAL-120 [20] = assay: as above
# Description: as §2
# CAL-148 [21] = assay: as above
# Description: as §2
# CAL-51 [22] = assay: as above
# Description: as §2
# CAL-85-1 [23] = assay: as above
# Description: as §2
# DU-4475 [24] = assay: as above
# Description: as §2
# HCC1143 [25] = assay: as above
# Description: as §2
# HCC1599 [26] = assay: as above
# Description: as §2
# HCC1937 [27] = assay: as above
# Description: as §2
# HDQ-P1 [28] = assay: as above
# Description: as §2
# Hs578T [29] = assay: as above
# Description: as §2
# MCF-10A [30] = assay: as above
# Description: as §2
# MDA-MB-231 [31] = assay: as above
# Description: as §2
# MDA-MB-436 [32] = assay: as above
# Description: as §2
# MDA-MB-453 [33] = assay: as above
# Description: as §2
# MDA-MB-468 [34] = assay: as above
# Description: as §2
# MFM-223 [35] = assay: as above
# Description: as §2
# SK-BR-3 [36] = assay: as above
# Description: as §2
# Hs578T [37] = assay: normalised response (% of control), CellTox Green; higher = less cell death (100 = DMSO, 0 = benzethonium chloride kill control)
# Outline: as §1
# BT-474 [38] = assay: normalised response (% of control), CellTiter-Glo; higher = more viable cells (100 = DMSO, 0 = benzethonium chloride kill control); remark: listed apart in the source
# Outline: as §1
# BT-549 [39] = assay: as above; remark: listed apart in the source
# Outline: as §1
# CAL-120 [40] = assay: as above; remark: listed apart in the source
# Outline: as §1
# CAL-148 [41] = assay: as above; remark: listed apart in the source
# Outline: as §1
# CAL-51 [42] = assay: as above; remark: listed apart in the source
# Outline: as §1
# CAL-85-1 [43] = assay: as above; remark: listed apart in the source
# Outline: as §1
# DU-4475 [44] = assay: as above; remark: listed apart in the source
# Outline: as §1
# HCC1143 [45] = assay: as above; remark: listed apart in the source
# Outline: as §1
# HCC1599 [46] = assay: as above; remark: listed apart in the source
# Outline: as §1
# HCC1937 [47] = assay: as above; remark: listed apart in the source
# Outline: as §1
# HDQ-P1 [48] = assay: as above; remark: listed apart in the source
# Outline: as §1
# Hs578T [49] = assay: as above; remark: listed apart in the source
# Outline: as §1
# MCF-10A [50] = assay: as above; remark: listed apart in the source
# Outline: as §1
# MDA-MB-231 [51] = assay: as above; remark: listed apart in the source
# Outline: as §1
# MDA-MB-436 [52] = assay: as above; remark: listed apart in the source
# Outline: as §1
# MDA-MB-453 [53] = assay: as above; remark: listed apart in the source
# Outline: as §1
# MDA-MB-468 [54] = assay: as above; remark: listed apart in the source
# Outline: as §1
# MFM-223 [55] = assay: as above; remark: listed apart in the source
# Outline: as §1
# SK-BR-3 [56] = assay: as above; remark: listed apart in the source
# Outline: as §1
Compound,normalised response (BT-474 [1]) [%],normalised response (BT-549 [2]) [%],normalised response (CAL-120 [3]) [%],normalised response (CAL-148 [4]) [%],normalised response (CAL-51 [5]) [%],normalised response (CAL-85-1 [6]) [%],normalised response (DU-4475 [7]) [%],normalised response (HCC1143 [8]) [%],normalised response (HCC1599 [9]) [%],normalised response (HCC1937 [10]) [%],normalised response (HDQ-P1 [11]) [%],normalised response (MCF-10A [12]) [%],normalised response (MDA-MB-231 [13]) [%],normalised response (MDA-MB-436 [14]) [%],normalised response (MDA-MB-453 [15]) [%],normalised response (MDA-MB-468 [16]) [%],normalised response (MFM-223 [17]) [%],normalised response (Hs578T [37]) [%],normalised response (BT-474 [38]) [%],normalised response (BT-549 [39]) [%],other results
CC(C)(C)Cn1c(N)nc2ccc(-c3[nH]c(C(C)(C)C)nc3-c3ccc(F)cc3)nc21 (10000 nM),89.8,90.9,93.6,98.9,104,41.5,95.7,87.1,85.6,92.4,100,89.3,47.1,71.1,93.9,107,86.6,–,–,–,normalised response (BT-474 [18]): 66.4%; normalised response (BT-549 [19]): 76.4%; normalised response (CAL-120 [20]): 89.3%; normalised response (CAL-148 [21]): 94.7%; normalised response (CAL-51 [22]): 104%; normalised response (CAL-85-1 [23]): 64.9%; normalised response (DU-4475 [24]): 99.4%; normalised response (HCC1143 [25]): 86.1%; normalised response (HCC1599 [26]): 78.1%; normalised response (HCC1937 [27]): 65.3%; normalised response (HDQ-P1 [28]): 70.7%; normalised response (Hs578T [29]): 94.1%; normalised response (MCF-10A [30]): 43.6%; normalised response (MDA-MB-231 [31]): 67.2%; normalised response (MDA-MB-436 [32]): 82.1%; normalised response (MDA-MB-453 [33]): 77.3%; normalised response (MDA-MB-468 [34]): 37%; normalised response (MFM-223 [35]): 63.7%; normalised response (SK-BR-3 [36]): 62.7%
Cc1c(C(=O)Nc2ccc(N3C[C@@H](C)O[C@@H](C)C3)nc2)cccc1-c1ccc(OC(F)(F)F)cc1 [Erismodegib] (10000 nM),93,130,101,–,99.8,85.3,108,109,118,122,111,101,107,79,63.9,171,105,80.5,–,–,normalised response (BT-474 [18]): 73.5%; normalised response (BT-549 [19]): 81.8%; normalised response (CAL-120 [20]): 97.6%; normalised response (CAL-148 [21]): 100%; normalised response (CAL-51 [22]): 102%; normalised response (CAL-85-1 [23]): 91.8%; normalised response (DU-4475 [24]): 99.6%; normalised response (HCC1143 [25]): 89.4%; normalised response (HCC1599 [26]): 91.1%; normalised response (HCC1937 [27]): 90.2%; normalised response (HDQ-P1 [28]): 85.3%; normalised response (Hs578T [29]): 94.8%; normalised response (MCF-10A [30]): 92%; normalised response (MDA-MB-231 [31]): 79%; normalised response (MDA-MB-436 [32]): 78.6%; normalised response (MDA-MB-453 [33]): 75.5%; normalised response (MDA-MB-468 [34]): 74.7%; normalised response (MFM-223 [35]): 80.8%; normalised response (SK-BR-3 [36]): 81%
C[C@@H](C(=O)O)c1ccc(-c2ccccc2)c(F)c1 [Tarenflurbil] (100 nM),93.2,98.8,103,102,92.8,101,98.1,98.1,99.3,100,93,61.1,96.1,72,100,101,103,89.7,101,97.3,normalised response (CAL-120 [40]): 98.3%; normalised response (CAL-148 [41]): 90.3%; normalised response (CAL-51 [42]): 91.1%; normalised response (CAL-85-1 [43]): 95%; normalised response (DU-4475 [44]): 101%; normalised response (HCC1143 [45]): 94.8%; normalised response (HCC1599 [46]): 106%; normalised response (HCC1937 [47]): 91.2%; normalised response (HDQ-P1 [48]): 95.2%; normalised response (Hs578T [49]): 102%; normalised response (MCF-10A [50]): 91.7%; normalised response (MDA-MB-231 [51]): 97.3%; normalised response (MDA-MB-436 [52]): 97.9%; normalised response (MDA-MB-453 [53]): 101%; normalised response (MDA-MB-468 [54]): 96.4%; normalised response (MFM-223 [55]): 96.2%; normalised response (SK-BR-3 [56]): 91.6%
Cn1nnc2c(C(N)=O)ncn2c1=O [Temozolomide] (100 nM),97.8,101,99.2,100,108,107,101,96.3,89.7,82.5,81.8,89.1,110,104,105,92.8,102,89.4,95.4,106,normalised response (CAL-120 [40]): 99.7%; normalised response (CAL-148 [41]): 98.8%; normalised response (CAL-51 [42]): 107%; normalised response (CAL-85-1 [43]): 93.6%; normalised response (DU-4475 [44]): 96.8%; normalised response (HCC1143 [45]): 101%; normalised response (HCC1599 [46]): 90.9%; normalised response (HCC1937 [47]): 88.2%; normalised response (HDQ-P1 [48]): 93.2%; normalised response (Hs578T [49]): 103%; normalised response (MCF-10A [50]): 103%; normalised response (MDA-MB-231 [51]): 101%; normalised response (MDA-MB-436 [52]): 98.8%; normalised response (MDA-MB-453 [53]): 102%; normalised response (MDA-MB-468 [54]): 100%; normalised response (MFM-223 [55]): 104%; normalised response (SK-BR-3 [56]): 96.5%
CCc1c(C(=O)C(N)=O)c2c(OCC(=O)O)cccc2n1Cc1ccccc1 [Varespladib] (100 nM),104,99.1,102,102,96.8,99.3,104,92.1,97,83.1,96,112,104,106,105,88.9,91.1,99.9,98,100,normalised response (CAL-120 [40]): 111%; normalised response (CAL-148 [41]): 103%; normalised response (CAL-51 [42]): 95.6%; normalised response (CAL-85-1 [43]): 98.5%; normalised response (DU-4475 [44]): 98.8%; normalised response (HCC1143 [45]): 103%; normalised response (HCC1599 [46]): 95.9%; normalised response (HCC1937 [47]): 102%; normalised response (HDQ-P1 [48]): 101%; normalised response (Hs578T [49]): 104%; normalised response (MCF-10A [50]): 105%; normalised response (MDA-MB-231 [51]): 103%; normalised response (MDA-MB-436 [52]): 98.5%; normalised response (MDA-MB-453 [53]): 97%; normalised response (MDA-MB-468 [54]): 95.3%; normalised response (MFM-223 [55]): 102%; normalised response (SK-BR-3 [56]): 101%
